Test results taken from patent US9006450B2 (Boehringer Ingelheim International GmbH, priority 2010, dated 2015).

target: T1, human ACC2 (Homo sapiens, UniProt O00763); experiment: ACC2 assay, spectrophotometric 384 well assay (NADH-linked, coupled lactate dehydrogenase/pyruvate kinase); format: biochemical; details: ACC2 assay, hACC2 construct lacking 128 N-terminal amino acids, 25° C., 340 nm; read-out: IC50
T1 construct: made in house; host or cells: insect cells (baculoviral expression system)
T1 sequence (O00763 129-2458 limits assumed): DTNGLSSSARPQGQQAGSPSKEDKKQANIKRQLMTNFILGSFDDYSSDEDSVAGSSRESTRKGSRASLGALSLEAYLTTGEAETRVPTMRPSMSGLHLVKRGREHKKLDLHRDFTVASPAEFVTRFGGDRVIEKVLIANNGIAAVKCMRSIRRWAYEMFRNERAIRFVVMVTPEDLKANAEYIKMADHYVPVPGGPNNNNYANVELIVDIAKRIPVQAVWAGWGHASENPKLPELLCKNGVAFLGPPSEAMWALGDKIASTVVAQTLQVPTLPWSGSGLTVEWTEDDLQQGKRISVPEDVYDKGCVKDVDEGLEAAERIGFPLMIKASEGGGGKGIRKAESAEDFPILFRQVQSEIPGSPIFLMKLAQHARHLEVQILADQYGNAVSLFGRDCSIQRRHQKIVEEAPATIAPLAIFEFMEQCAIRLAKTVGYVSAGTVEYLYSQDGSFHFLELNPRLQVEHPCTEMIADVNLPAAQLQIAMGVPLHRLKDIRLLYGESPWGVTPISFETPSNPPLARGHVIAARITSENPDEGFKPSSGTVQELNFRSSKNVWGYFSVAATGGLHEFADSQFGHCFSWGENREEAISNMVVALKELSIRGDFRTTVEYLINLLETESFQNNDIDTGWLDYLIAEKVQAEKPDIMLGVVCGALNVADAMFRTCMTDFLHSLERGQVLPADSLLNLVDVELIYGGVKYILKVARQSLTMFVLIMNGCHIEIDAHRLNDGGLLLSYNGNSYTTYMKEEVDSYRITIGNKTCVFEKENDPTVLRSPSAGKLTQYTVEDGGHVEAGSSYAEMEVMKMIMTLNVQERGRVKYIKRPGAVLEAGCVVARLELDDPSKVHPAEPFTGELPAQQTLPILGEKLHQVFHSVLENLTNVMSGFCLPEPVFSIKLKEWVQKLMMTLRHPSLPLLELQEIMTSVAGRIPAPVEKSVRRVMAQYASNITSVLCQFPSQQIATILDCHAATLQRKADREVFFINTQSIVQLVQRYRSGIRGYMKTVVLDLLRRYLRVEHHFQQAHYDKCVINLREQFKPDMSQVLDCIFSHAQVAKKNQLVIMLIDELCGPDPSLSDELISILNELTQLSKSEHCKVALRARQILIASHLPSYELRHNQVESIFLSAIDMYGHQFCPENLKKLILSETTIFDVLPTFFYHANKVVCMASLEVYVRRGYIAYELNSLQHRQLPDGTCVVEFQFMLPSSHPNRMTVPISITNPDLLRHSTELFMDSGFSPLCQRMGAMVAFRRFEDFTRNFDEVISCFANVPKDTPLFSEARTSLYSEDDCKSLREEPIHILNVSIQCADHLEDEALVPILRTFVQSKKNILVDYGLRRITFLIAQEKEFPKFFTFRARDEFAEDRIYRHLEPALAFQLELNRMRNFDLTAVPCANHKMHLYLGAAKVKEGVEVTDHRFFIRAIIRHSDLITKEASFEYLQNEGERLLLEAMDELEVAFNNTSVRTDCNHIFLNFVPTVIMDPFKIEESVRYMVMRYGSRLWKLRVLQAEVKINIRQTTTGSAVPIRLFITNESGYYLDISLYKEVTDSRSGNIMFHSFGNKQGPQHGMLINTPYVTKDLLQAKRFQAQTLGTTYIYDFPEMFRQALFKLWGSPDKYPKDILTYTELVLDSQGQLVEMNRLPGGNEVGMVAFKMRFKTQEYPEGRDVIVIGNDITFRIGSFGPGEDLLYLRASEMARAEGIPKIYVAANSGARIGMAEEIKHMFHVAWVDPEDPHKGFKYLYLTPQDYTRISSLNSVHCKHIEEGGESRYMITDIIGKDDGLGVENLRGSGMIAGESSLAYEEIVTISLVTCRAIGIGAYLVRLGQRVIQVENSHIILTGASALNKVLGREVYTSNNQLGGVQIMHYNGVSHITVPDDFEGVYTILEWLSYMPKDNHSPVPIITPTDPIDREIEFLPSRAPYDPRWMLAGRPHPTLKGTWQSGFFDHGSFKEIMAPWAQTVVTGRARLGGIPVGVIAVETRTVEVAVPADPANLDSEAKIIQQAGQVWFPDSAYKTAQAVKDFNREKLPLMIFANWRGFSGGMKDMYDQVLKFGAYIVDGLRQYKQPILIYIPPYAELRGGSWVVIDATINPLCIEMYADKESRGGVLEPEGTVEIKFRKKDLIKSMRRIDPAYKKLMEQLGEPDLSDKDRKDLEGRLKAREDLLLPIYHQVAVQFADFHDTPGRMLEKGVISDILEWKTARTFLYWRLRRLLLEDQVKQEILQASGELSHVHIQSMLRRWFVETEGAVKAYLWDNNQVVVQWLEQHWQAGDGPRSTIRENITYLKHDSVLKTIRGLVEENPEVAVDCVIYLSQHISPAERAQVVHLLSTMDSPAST
Summary of the method: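 ADP output tracked via pyruvate kinase/lactate dehydrogenase NADH oxidation, slope at 340 nm over 15 min, 25° C, with 500 μM ATP and 200 μM each acetyl-CoA and NADH. Enzyme: insect-cell-expressed human ACC2, N-terminal 128 residues deleted; pH 7.5 Tris with citrate, KHCO3. IC50 from four-parameter regression versus vehicle and no-acetyl-CoA controls.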

IC50 | Structure (SMILES)
290 nM | CCCOc1ccc(N2CCC(c3ccc([C@H](C)NC(=O)C(F)(F)F)cc3)CC2)c(OC)c1 [Example 40.1, (S)-2,2,2-Trifluoro-N-{1-[4-(1-(2-methoxy-4-propoxyphenyl)piperidin-4-yl)phenyl]-ethyl}acetamide]
4600 nM | CC(=O)N[C@@H](C)c1ccc(C2CCN(c3ccnc(OCCc4ccccc4)n3)CC2)cc1 [Example 11.13]
12000 nM | CC(=O)N(C)[C@@H](C)c1ccc(C2CCN(c3ccc(OCC4CC4)cc3)CC2)cc1 [Example 39.1, (S)—N-(1-(4-(1-(4-Cyclopropylmethoxyphenyl)piperidin-4-yl)phenyl)ethyl)-N-methylacetamide]
2100 nM | CCOc1ccc(N2CCC(c3ccc([C@H](C)NC(=O)NCc4ccncn4)cc3)CC2)cc1 [Example 14.60]
3200 nM | CCCOc1ccc(N2CCC(c3ccc([C@H](C)NC(C)=O)cc3)CC2)cc1C#N [Example 8.32]
5900 nM | CC(=O)N[C@@H](C)c1ccc(C2CCN(c3ncc(-c4ccc5[nH]ncc5c4)cn3)CC2)cc1 [Example 10.86]
240 nM | CC(=O)N[C@@H](C)c1ccc(C2CCN(c3cc(Oc4ccccc4F)ncn3)CC2)cc1 [Example 11.25]
530 nM | CC(=O)N[C@@H](C)c1ccc(C2CCN(c3ncc(C(=O)N4CC5CCCC5C4)cn3)CC2)cc1 (stereo partly drawn) [Example 18.20]
180 nM | C[C@H](NC(=O)C1CC1)c1ccc(C2CCN(c3ccc(OCC4CC4)cc3F)CC2)cc1 [Example 1.79]
1700 nM | CC(=O)N[C@@H](C)c1ccc(C2CCN(c3cccc(C(=O)N4Cc5ccccc5C4)c3)CC2)cc1 [Example 29.2]
4800 nM | CC(=O)N[C@@H](C)c1ccc(C2CCN(c3ccc(OCCOC4CC4)cc3)CC2)cc1 [Example 9.31]
1200 nM | C[C@H](NC(=O)C1CC1)c1ccc(C2CCN(c3ccc4c(c3)OCC(C)(C)CO4)CC2)cc1 [Example 1.87]
1700 nM | CCOc1ccc(N2CCC(c3ccc([C@H](C)NC(N)=O)cc3)CC2)cc1 [Example 14.5]
230 nM | CC(=O)N[C@@H](C)c1ccc(C2CCN(c3ncc(-c4ccc5ncccc5c4)cn3)CC2)cc1 [Example 10.70]
60 nM | CC(=O)N[C@@H](C)c1ccc(C2CCN(c3ccc(OCC4CCC4)cc3)CC2)cc1 [Example 9.29]
14600 nM | COCCOc1ccc(N2CCC(c3ccc([C@H](C)NC(C)=O)cc3)CC2)cc1OC [Example 8.22]
640 nM | CC(=O)N[C@@H](C)c1ccc(C2CCN(c3ccnc(NCC4CC4)n3)CC2)cc1 [Example 11.111]
1500 nM | CC(=O)N[C@@H](C)c1ccc(C2CCN(c3ccnc(NC4CC4)n3)CC2)cc1 [Example 11.115]
1300 nM | CC(=O)N[C@@H](C)c1ccc(C2CCN(c3ccc(NCC4CC4)cc3)CC2)cc1 [Example 24.4]
210 nM | CCCOc1ccc(N2CCC(c3ccc([C@H](C)NC(=O)N(C)C)cc3)CC2)c(F)c1 [Example 1.86]
600 nM | Cc1cc(OC2CC2)ccc1N1CCC(c2ccc([C@H](C)NC(=O)C3CC3)cc2)CC1 [Example 1.91]
90 nM | Cc1cccc(-c2cnc(N3CCC(c4ccc([C@H](C)NC(=O)C5CC5)cc4)CC3)nc2)c1 [Example 10.100]
150 nM | CC(=O)N[C@@H](C)c1ccc(C2CCN(c3ccc(OCC4CC4)nc3C#N)CC2)cc1 [Example 1.183]

IC50 | Structure (SMILES)
400 nM | CC(=O)N[C@@H](C)c1ccc(C2CCN(c3cccc(OCC(C)C)c3)CC2)cc1 [Example 8.4]
3800 nM | CC(=O)N[C@@H](C)c1ccc(C2CCN(c3ccnc(N[C@H](C)C(C)C)n3)CC2)cc1 [Example 11.75]
220 nM | CC(=O)N[C@@H](C)c1ccc(C2CCN(c3ccc(-c4ccccc4)cn3)CC2)cc1 [Example 4.15]
4800 nM | COc1ncc(N2CCC(c3ccc([C@H](C)NC(C)=O)cc3)CC2)cn1 [Example 16.2]
1100 nM | CC(=O)N[C@@H](C)c1ccc(C2CCN(c3cc(-c4ccccc4)ncn3)CC2)cc1 [Example 4.22]
520 nM | CC(=O)N[C@@H](C)c1ccc(C2CCN(c3nccc(-c4ccccc4)n3)CC2)cc1 [Example 4.21]
50 nM | CC(=O)N[C@@H](C)c1ccc(C2CCN(c3ccc(OC4CCCC4)cc3)CC2)cc1 [Example 1.2]
900 nM | C[C@H](NC(=O)C1CC1)c1ccc(C2CCN(c3ncc(-c4ccc5c(c4)CCO5)cn3)CC2)cc1 [Example 10.98]
420 nM | CCOc1ccc(N2CCC(c3ccc([C@H](C)NC(=O)C4CC4(F)F)cc3)CC2)cc1 (stereo partly drawn) [Example 6.23]
2800 nM | CC(=O)N[C@@H](C)c1ccc(C2CCN(c3ccc(C4(C#N)CC4)cn3)CC2)cc1 [Example 5.35]
890 nM | COc1cc(N2CCC(c3ccc([C@H](C)NC(C)=O)cc3)CC2)ccc1OCC(C)C [Example 8.29]
360 nM | CC(=O)N[C@@H](C)c1ccc(C2CCN(c3ncc(-c4cccnc4)cn3)CC2)cc1 [Example 10.12]
120 nM | CCCOc1cc(N2CCC(c3ccc([C@H](C)NC(C)=O)cc3)CC2)ccn1 [Example 19.23]
510 nM | COc1cnc(N2CCC(c3ccc([C@H](C)NC(C)=O)cc3)CC2)nc1 [Example 4.33]
3100 nM | CC(=O)N[C@@H](C)c1ccc(C2CCN(c3ccc(OCCn4ccnc4)cc3)CC2)cc1 [Example 1.109]
170 nM | CC(=O)N[C@@H](C)c1ccc(C2CCN(c3cccc(OCc4cc(C)on4)c3)CC2)cc1 [Example 9.11]
260 nM | COc1nc(N2CCC(c3ccc([C@H](C)NC(C)=O)cc3)CC2)ncc1-c1ccccc1 [Example 21.1, (S)—N-(1-{4-[1-(4-Methoxy-5-phenyl-pyrimidin-2-yl)-piperidin-4-yl]-phenyl}-ethyl)-acetamide]
270 nM | CC(=O)N[C@@H](C)c1ccc(C2CCN(c3ncc(-c4cncc(F)c4)cn3)CC2)cc1 [Example 10.69]
2000 nM | COc1cc2ccnc(N3CCC(c4ccc([C@H](C)NC(C)=O)cc4)CC3)c2cc1OC [Example 4.31]
140 nM | CC(=O)N[C@@H](C)c1ccc(C2CCN(c3ncc(-c4cccc(C#N)c4)cn3)CC2)cc1 [Example 10.80]
4000 nM | CC(=O)N[C@@H](C)c1ccc(C2CCN(c3ccc4sccc4c3)CC2)cc1 [Example 1.69]
7600 nM | CCOC(=O)c1cnnc(N2CCC(c3ccc([C@H](C)NC(C)=O)cc3)CC2)c1 [Example 5.55]
20800 nM | CC(=O)N[C@@H](C)c1ccc(C2CCN(c3ncc(C(=O)N(C)C4CCS(=O)(=O)C4)cn3)CC2)cc1 (stereo partly drawn) [Example 18.69]

IC50 | Structure (SMILES)
290 nM | CC(=O)N[C@@H](C)c1ccc(C2CCN(c3ncc(-c4nc5ccccc5[nH]4)cn3)CC2)cc1 [Example 23.1, (S)—N-[1-(4-{1-[5-(1H-Benzoimidazol-2-yl)-pyrimidin-2-yl]-piperidin-4-yl}-phenyl)-ethyl]-acetamide]
1200 nM | CC(=O)N[C@@H](C)c1ccc(C2CCN(c3cc4c(cc3F)OCCCO4)CC2)cc1 [Example 1.184]
6400 nM | CCCOc1ccc(N2CCC(c3ccc([C@@H](C)NC(C)=O)cc3)CC2)c(OC)c1 [Example 15.23]
110 nM | CC(=O)N[C@@H](C)c1ccc(C2CCN(c3cc(OCC4CC4)ncn3)CC2)cc1 [Example 11.108]
170 nM | CCOc1ccc(N2CCC(c3ccc([C@H](C)NC(C)=O)cc3)CC2)c(C#N)c1 [Example 13.3]
16500 nM | CC(=O)N[C@@H](C)c1ccc(C2CCN(c3ncc(C(=O)NC4CCN(C)C4)cn3)CC2)cc1 (stereo partly drawn) [Example 18.81]
530 nM | CCOc1ccc(N2CCC(c3ccc(CC(C)NC(C)=O)cc3)CC2)c(F)c1 (stereo not drawn) [Example 2.12]
80 nM | CC(=O)N[C@@H](C)c1ccc(C2CCN(c3ccc4oc(-c5ccccc5)nc4c3)CC2)cc1 [Example 1.71]
200 nM | CC(=O)N[C@@H](C)c1ccc(C2CCN(c3ncc(OCC4CC4)cc3F)CC2)cc1 [Example 1.104]
140 nM | CC(=O)N[C@@H](C)c1ccc(C2CCN(c3ccc4c(c3)OCCO4)CC2)cc1 [Example 1.40]
20000 nM | CC(=O)N[C@@H](C)c1ccc(C2CCN(c3ccc(O)cc3F)CC2)cc1 [Example 1.65]
140 nM | CCCC(C)Oc1ccc(N2CCC(c3ccc([C@H](C)NC(C)=O)cc3)CC2)cc1 (stereo partly drawn) [Example 9.19]
150 nM | CC(=O)N[C@@H](C)c1ccc(C2CCN(c3ncc(-c4ccccc4)c(C)n3)CC2)cc1 [Example 21.2, (S)—N-(1-{4-[1-(4-Methyl-5-phenyl-pyrimidin-2-yl)-piperidin-4-yl]-phenyl}-ethyl)-acetamide]
1000 nM | CC(=O)N[C@@H](C)c1ccc(C2CCN(c3ccc4ccc(Cl)cc4n3)CC2)cc1 [Example 5.31]
12400 nM | CC(=O)N[C@@H](C)c1ccc(C2CCN(c3ccc(OC(C)C)c(C#N)c3)CC2)cc1 [Example 8.24]
860 nM | CCOc1ccc(N2CCC(c3ccc([C@H](C)NC(=O)C4CC4)cc3)CC2)nc1 [Example 5.58]
180 nM | CC(=O)N[C@@H](C)c1ccc(C2CCN(c3ncc(-c4ccc(CC#N)cc4)cn3)CC2)cc1 [Example 10.18]
320 nM | C[C@H](NC(=O)C1CC1)c1ccc(C2CCN(c3ccc(OCC4CCC4)cc3)CC2)cc1 [Example 1.141]
4000 nM | COc1ccc(N2CCC(c3ccc([C@H](C)NC(C)=O)cc3)CC2)cc1C1CC1 [Example 1.166]
180 nM | CC(=O)N[C@@H](C)c1ccc(C2CCN(c3ccnc(N4CCCC4)n3)CC2)cc1 [Example 11.114]
460 nM | CCOc1cnc(N2CCC(c3ccc([C@H](C)NC(C)=O)cc3)CC2)nc1 [Example 4.50]
60 nM | CC(=O)N[C@@H](C)c1ccc(C2CCN(c3ccc(OC4CC4)cc3F)CC2)cc1 [Example 1.189]

same assay, conditions: IC50, ACC2 assay, hACC2 construct lacking 128 N-terminal amino acids, 25° C., 340 nm

Structure (SMILES) | IC50
CCOc1ccc(N2CCC(c3ccc([C@H](C)NC(=O)CF)cc3)CC2)cc1 [Example 6.14] | 190 nM
